The record followed here is US5407824A, “Recombinant coryneform bacterium for producing L-tryptophan” (Kyowa Hakko Kogyo Co., Ltd., priority 1989, dated 1995).

What all share (assay type): biochemical
For assay [1], the system named is 3-deoxy-D-arabino-heptulosonate-7-phosphate synthase (DS) of the transformant carrying pCGDS1. Briefly: DS activity, inhibition by phenylalanine and tyrosine, transformant carrying pCGDS1. The following applies: Corynebacterium glutamicum ATCC 13032 carrying pCGDS1 (DS gene from K38). As to the method: DS activities of Corynebacterium glutamicum ATCC 13032 and the transformant carrying pCGDS1 were determined according to the method of P. R. Sprinavasan, D. B. Sprinson, et al. [J. Biol. Chem., 234, 716 (1959)].

In assay [2] the target is T1, anthranilate synthase (AS) of ATCC 39019 strain (Corynebacterium glutamicum, UniProt P06557).
T1 construct: endogenous in cells; host or cells: C. glutamicum, strain printed as ATCC 39019 (ATCC 13032 earlier in the same paragraph)
Nature of the assay: AS activity, inhibition by tryptophan, ATCC 39019 strain. The note with it: read-out: Tryptophan concentration effective for 50% inhibition of the AS activity.

Assay [3] addresses T2, anthranilate synthase (AS) encoded by pCtrp1 (Corynebacterium glutamicum, UniProt P06557).
T2 construct: cell enzyme activity
Nature of the assay: AS activity, inhibition by tryptophan, TA108 strain carrying pCtrp1. The note with it: read-out: Tryptophan concentration effective for 50% inhibition of the AS activity. The protocol:
(§1) AS activities of Corynebacterium glutamicum ATCC 13032 and TA108 strains carrying pCtrp1 or pCtrp57 were determined according to the method of H. Hagino, et al. [Agric. Biol. Chem., 39, 323 (1975)], and their PRT activities were determined according to the method of J. Ito and C. Yanofsky [J. Biol. Chem., 97, 734 (1969)]. AS and PRT activities of TA108 strains carrying pCtrp1 or pCtrp57 were more than 10 times as high as those of ATCC 13032 strain.

Assay [4] deals with T3, anthranilate synthase (AS) encoded by pCtrp57 (Corynebacterium glutamicum, UniProt P06557).
T3 construct: cell enzyme activity
Briefly: AS activity, inhibition by tryptophan, TA108 strain carrying pCtrp57. The following applies: read-out: Tryptophan concentration effective for 50% inhibition of the AS activity. The protocol:
(§2) TA108 strain carrying pCtrp1 was cultured in NB medium containing 10 μg/ml kanamycin till the latter stage of the logarithmic growth phase. The grown cells were collected and washed once with 50 mM Tris-maleate buffer solution (pH 6.0) by centrifugation. The washed cells were treated with 400 μg/ml N-methyl-N'-nitro-N-nitrosoguanidine in 50 mM Tris-maleate buffer solution at room temperature for 20 minutes. The treated cells were washed twice with 50 mM Tris-maleate buffer solution by centrifugation and cultured in NB medium containing 10 μg/ml kanamycin at 30° C. for 16 hours. A plasmid DNA was isolated from the grown cells in the same manner as in (1). TA108 strain was transformed with the plasmid thus obtained in the same manner as in (3), and the kanamycin-resistant Colonies grown on RCGP agar medium containing 200 μg/ml kanamycin were scraped up, and washed twice with physiological saline solution by centrifugation. The washed cells were spread on minimal agar medium M1 containing 3 mg/ml 5FT, and cultured at 30° C. for three days. […]
(§3) AS activities of Corynebacterium glutamicum ATCC 13032 and TA108 strains carrying pCtrp1 or pCtrp57 were determined according to the method of H. Hagino, et al. [Agric. Biol. Chem., 39, 323 (1975)], and their PRT activities were determined according to the method of J. Ito and C. […]

In assay [5] the target is T4, anthranilate phosphoribosyl transferase (PRT) of ATCC 39019 strain (Corynebacterium glutamicum, UniProt P06559).
T4 construct: endogenous in cells; host or cells: C. glutamicum, strain printed as ATCC 39019 (ATCC 13032 earlier in the same paragraph)
T4 sequence (P06559 1-348): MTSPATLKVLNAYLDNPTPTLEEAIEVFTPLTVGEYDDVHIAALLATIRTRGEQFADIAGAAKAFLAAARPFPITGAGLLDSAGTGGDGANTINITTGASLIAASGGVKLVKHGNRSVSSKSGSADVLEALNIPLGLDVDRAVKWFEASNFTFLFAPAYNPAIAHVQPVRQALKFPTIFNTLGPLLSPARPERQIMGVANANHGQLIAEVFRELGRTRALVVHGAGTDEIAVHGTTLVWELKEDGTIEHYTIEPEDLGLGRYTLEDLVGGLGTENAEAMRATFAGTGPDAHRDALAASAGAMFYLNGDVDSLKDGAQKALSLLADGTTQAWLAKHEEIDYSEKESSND
Briefly: PRT activity, inhibition by tryptophan, ATCC 39019 strain. The note with it: read-out: Tryptophan concentration effective for 50% inhibition of the PRT activity.

In assay [6] the target is T5, anthranilate phosphoribosyl transferase (PRT) encoded by pCtrp1 (Corynebacterium glutamicum, UniProt P06559).
T5 construct: presence of the AS, PRT, TS-α and TS-β genes in the above 11.0 Kb DNA fragment introduced into pCtrp1; expressed in transfected cells; host or cells: C. glutamicum TA108 carrying pCtrp1
T5 sequence (P06559 1-348): T4 sequence (P06559 1-348)
Nature of the assay: PRT activity, inhibition by tryptophan, TA108 strain carrying pCtrp1. The following applies: read-out: Tryptophan concentration effective for 50% inhibition of the PRT activity. The protocol:
as §1

For assay [7], the target named is T6, anthranilate phosphoribosyl transferase (PRT) encoded by pCtrp57 (Corynebacterium glutamicum, UniProt P06559).
T6 construct: cell enzyme activity
Briefly: PRT activity, inhibition by tryptophan, TA108 strain carrying pCtrp57. The following applies: read-out: Tryptophan concentration effective for 50% inhibition of the PRT activity. As to the method: as §2, §3

T1 sequence (P06557 whole entry): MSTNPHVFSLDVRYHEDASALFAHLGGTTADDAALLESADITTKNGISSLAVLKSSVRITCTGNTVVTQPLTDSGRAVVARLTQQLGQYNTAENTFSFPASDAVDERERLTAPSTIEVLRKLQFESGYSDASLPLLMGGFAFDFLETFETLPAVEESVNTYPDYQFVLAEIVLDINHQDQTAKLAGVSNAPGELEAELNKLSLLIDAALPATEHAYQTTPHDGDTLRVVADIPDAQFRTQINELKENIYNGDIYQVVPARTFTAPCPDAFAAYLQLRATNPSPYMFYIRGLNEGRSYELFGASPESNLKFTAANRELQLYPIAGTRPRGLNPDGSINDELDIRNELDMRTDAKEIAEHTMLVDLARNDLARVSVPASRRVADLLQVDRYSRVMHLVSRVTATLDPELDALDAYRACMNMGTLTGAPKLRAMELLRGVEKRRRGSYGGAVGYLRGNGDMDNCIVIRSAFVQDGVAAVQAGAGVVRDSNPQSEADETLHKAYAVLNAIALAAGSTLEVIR
T1 sequence (P06558 whole entry partner): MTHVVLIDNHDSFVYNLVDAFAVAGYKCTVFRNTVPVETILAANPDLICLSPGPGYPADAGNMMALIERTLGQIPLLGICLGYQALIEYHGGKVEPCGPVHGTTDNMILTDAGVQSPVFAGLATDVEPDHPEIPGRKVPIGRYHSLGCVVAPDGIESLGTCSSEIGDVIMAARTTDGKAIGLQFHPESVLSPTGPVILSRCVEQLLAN
T2 sequence (P06558 whole entry): as the sequence (P06558 whole entry partner) above
T2 sequence (P06557 whole entry): as the sequence (P06557 whole entry) above
T3 sequence (P06558 whole entry): as the sequence (P06558 whole entry partner) above
T3 sequence (P06557 whole entry): as the sequence (P06557 whole entry) above

`N[C@@H](Cc1ccccc1)C(=O)O` [phenylalanine]: the “Inhibition of DS in the transformant carrying pCGDS1” value in assay [1] is given as “free from inhibition”.
Turning to `N[C@@H](Cc1c[nH]c2ccccc12)C(=O)O` [tryptophan], the IC50 in assay [2] was 2 µM; in assay [3], 8 µM; in assay [4] it was 4000 µM; in assay [5], 190 µM; in assay [6] it was 190 µM; in assay [7], 4800 µM.
Turning to `N[C@@H](Cc1ccc(O)cc1)C(=O)O` [tyrosine], the “Inhibition of DS in the transformant carrying pCGDS1” value in assay [1] was “free from inhibition”.
